In patent US7750017B2, “Heterocycles” (Bayer Schering Pharma Aktiengesellschaft, priority 2004, dated 2010):
Structures can show the parent of a compound that is named as a salt.

Columns and labels:
[1] = system: A431 cells [human epidermoid carcinoma, overexpressing HER1 (EGFR, ErbB1)]; test: In vitro tumor cell proliferation assay (Cell Titer-Glo luminescent cell viability), A431 cells; assay type: cell-based; settings: A-431, 72 h, 72 hours of drug exposure, Cell Titer-Glo readout, read-out: IC50, anti-proliferative activity in A431 cells
Source text: (§1) The utility of the compounds of the present invention can be illustrated, for example, by their activity in vitro in the in vitro tumor cell proliferation assay described below. The link between activity in tumor cell proliferation assays in vitro and anti-tumor activity in the clinical setting has been very well established in the art.
(§2) The following assay is one of the methods by which compound activity relating to treatment of the disorders identified herein can be determined.
(§3) The tumor cell proliferation assay used to test the compounds of the present invention involves a readout called Cell Titer-Glow® Luminescent Cell Viability Assay developed by Promega® (Cunningham, B A “A Growing Issue: Cell Proliferation Assays, Modern kits ease quantification of cell growth” The Scientist 2001, 15(13), 26, and Crouch, S P et al., “The use of ATP bioluminescence as a measure of cell proliferation and cytotoxicity” Journal of Immunological Methods 1993, 160, 81-88), that measures inhibition of cell proliferation. Generation of a luminescent signal corresponds to the amount of ATP present, which is directly proportional to the number of metabolically active (proliferating) cells.
(§4) A431 cells [human epidermoid carcinoma, ATCC # […], overexpressing HER1 (EGFR, ErbB1)] and BT474 [human breast carcinoma, ATCC # CRL-1555, overexpressing HER2 (ErbB2)] were plated at a density of 2.5×10^3 cells/well in 96 well black-clear bottom tissue culture plates in RPMI media with 10% Fetal Bovine Serum and incubated at 37° C. Twenty-four hours later, test compounds are added at a final concentration range from as high 100 μm to as low 64 pM depend on the activities of the tested compounds in serial dilutions at a final DMSO concentration of 0.1%. Cells were incubated for 72 hours at 37° C. in complete growth media after addition of the test compound. After 72 hours of drug exposure, the plates were equilibrated to room temperature for approximately 30 min. Then, using a Promega Cell Titer Glo Luminescent® assay kit, lysis buffer containing 100 microliters of the enzyme luciferase and its substrate, luciferin mixture, was added to each well. The plates were mixed for 2 min on orbital shaker to ensure cell lysis and incubated for 10 min at room temperature to stabilize luminescence signal. The samples were read on VICTOR 2 using Luminescence protocol, and analyzed with Analyze5 software to generate IC50 values.

[2] = system: BT474 [human breast carcinoma, overexpressing HER2 (ErbB2)]; test: In vitro tumor cell proliferation assay (Cell Titer-Glo luminescent cell viability), BT474 cells; assay type: cell-based; settings: BT-474, 72 h, 72 hours of drug exposure, Cell Titer-Glo readout, read-out: IC50, anti-proliferative activity in BT474 cells
Source text: as §1, §2, §3, §4

| SMILES | IC50 [1] [µM] | IC50 [2] [µM] |
| --- | --- | --- |
| COC1CCN(CCc2ccc3c(c2)sc2ncnc(Nc4ccc(OCc5cccc(F)c5)c(Cl)c4)c23)C1 (centres unmarked) [Example 20, N-{3-chloro-4-[(3-fluorobenzyl)oxy]phenyl}-7-[2-(3-methoxypyrrolidin-1-yl)ethyl][1] benzothieno[2,3-d]pyrimidin-4-amine] | ≤ 5 | ≤ 0.5 |
| CN1CCN(CCc2ccc3c(c2)sc2ncnc(Nc4ccc(OCc5cccc(F)c5)c(Cl)c4)c23)CC1 [Example 21, N-{3-chloro-4-[(3-fluorobenzyl)oxy]phenyl}-7-[2-(4-methylpiperazin-1-yl)ethyl][1] benzothieno[2,3-d]pyrimidin-4-amine] | ≤ 5 | ≤ 0.5 |
| OCCNCCc1ccc2c(c1)sc1ncnc(Nc3ccc(OCc4cccc(F)c4)c(Cl)c3)c12 [Example 22, 2-({2-[4-({3-chloro-4-[(3-fluorobenzyl)oxy]phenyl}amino) [1]benzothieno [2,3-d]pyrimidin-7-yl]ethyl}amino)ethanol] | ≤ 5 | ≤ 0.5 |
| Fc1cccc(COc2ccc(Nc3ncnc4sc5cc(CCN6CCNCC6)ccc5c34)cc2Cl)c1 [Example 23, N-{3-chloro-4-[(3-fluorobenzyl)oxy]phenyl}-7-(2-piperazin-1-ylethyl)[1]benzothieno [2,3-d]pyrimidin-4-amine] | ≤ 5 | ≤ 0.5 |
| CN(C)[C@H]1CCN(CCc2ccc3c(c2)sc2ncnc(Nc4ccc(OCc5cccc(F)c5)c(Cl)c4)c23)C1 [Example 24, N-{3-chloro-4-[(3-fluorobenzyl)oxy]phenyl}-7-{2-[3-(dimethylamino)pyrrolidin-1-yl]ethyl}[1]benzothieno[2,3-d] pyrimidin-4-amine] | ≤ 5 | ≤ 5 |
| O=C(Cc1ccc2c(c1)sc1ncnc(Nc3ccc(OCc4cccc(F)c4)c(Cl)c3)c12)N1CCOCC1 [Example 28, 2-{4-[3-Chloro-4-(3-fluoro-benzyloxy)-phenylamino]-benzo[4,5]thieno[2,3-]pyrimidin-7-yl}-1-morpholin-4-yl-ethanone] | ≤ 5 | ≤ 0.5 |
| O=C(Cc1ccc2c(c1)sc1ncnc(Nc3ccc(OCc4cccc(F)c4)c(Cl)c3)c12)NCCOCCO [Example 29, 2-[4-({3-chloro-4-[(3-fluorobenzyl)oxy]phenyl}amino)[1]benzothieno[2,3-d]pyrimidin-7-yl]-N-[2-(2-hydroxyethoxy)ethyl] acetamide] | ≤ 5 | ≤ 0.5 |
| O=C(Cc1ccc2c(c1)sc1ncnc(Nc3ccc(OCc4cccc(F)c4)c(Cl)c3)c12)NCCN1CCOCC1 [Example 30, 2-[4-({3-chloro-4-[(3-fluorobenzyl)oxy]phenyl}amino)[1]benzothieno[2,3-d]pyrimidin-7-yl]-N-(2-morpholin-4-ylethyl)acetamide] | ≤ 5 | ≤ 0.5 |
| O=C(Cc1ccc2c(c1)sc1ncnc(Nc3ccc(OCc4cccc(F)c4)c(Cl)c3)c12)N1CCNCC1 [Example 31, N-{3-chloro-4-[(3-fluorobenzyl)oxy]phenyl}-7-(2-oxo-2-piperazin-1-ylethyl)[1] benzothieno[2,3-d]pyrimidin-4-amine hydrochloride] | ≤ 5 | ≤ 0.5 |
| CN1CCN(C(=O)Cc2ccc3c(c2)sc2ncnc(Nc4ccc(OCc5cccc(F)c5)c(Cl)c4)c23)CC1 [Example 32, N-{3-chloro-4-[(3-fluorobenzyl)oxy]phenyl}-7-[2-(4-methylpiperazin-1-yl)-2-oxoethyl][1]benzothieno[2,3-d] pyrimidin-4-amine] | ≤ 5 | ≤ 0.5 |
| O=C(Cc1ccc2c(c1)sc1ncnc(Nc3ccc(OCc4cccc(F)c4)c(Cl)c3)c12)NCC1CCCNC1 (centres unmarked) [Example 33, 2-[4-({3-chloro-4-[(3-fluorobenzyl)oxy]phenyl}amino) [1]benzothieno[2,3-d]pyrimidin-7-yl]-N-(piperidin-3-ylmethyl) acetamide hydrochloride] | ≤ 50 | ≤ 0.5 |
| Fc1cccc(COc2ccc(Nc3ncnc4sc5cc(OCCN6CCOCC6)ccc5c34)cc2Cl)c1 [Example 38, N-{3-chloro-4-[(3-fluorobenzyl)oxy]phenyl}-7-(2-morpholin-4-ylethoxy) [1]benzothieno[2,3-d]pyrimidin-4-amine] | ≤ 5 | ≤ 0.5 |
| Fc1cccc(COc2ccc(Nc3ncnc4sc5cc(OCCCN6CCOCC6)ccc5c34)cc2Cl)c1 [Example 39, N-{3-chloro-4-[(3-fluorobenzyl)oxy]phenyl}-7-(3-morpholin-4-ylpropoxy)[1] benzothieno[2,3-d]pyrimidin-4-amine] | ≤ 5 | ≤ 0.5 |
| Fc1cccc(COc2ccc(Nc3ncnc4sc5cc(OCCn6cccc6)ccc5c34)cc2Cl)c1 [Example 40, N-{3-chloro-4-[(3-fluorobenzyl)oxy]phenyl}-7-[2-(1H-pyrrol-1-yl)ethoxy][1] benzothieno[2,3-d]pyrimidin-4-amine] | ≤ 50 | ≤ 5 |
| Fc1cccc(COc2ccc(Nc3ncnc4sc5cc(OCCN6CCCC6)ccc5c34)cc2Cl)c1 [Example 41, N-{3-chloro-4-[(3-fluorobenzyl)oxy]phenyl}-7-(2-pyrrolidin-1-ylethoxy)[1] benzothieno[2,3-d]pyrimidin-4-amine] | ≤ 5 | ≤ 0.5 |
| Fc1cccc(COc2ccc(Nc3ncnc4sc5cc(N6CCOCC6)ccc5c34)cc2Cl)c1 [Example 44, [3-Chloro-4-(3-fluoro-benzyloxy)-phenyl]-(7-morpholin-4-yl-benzo[4,5]thieno[2,3-d]pyrimidin-4-yl)-amine] | ≤ 50 | ≤ 0.5 |
| COC(=O)/C=C/c1ccc2c(c1)sc1ncnc(Nc3ccc(OCc4cccc(F)c4)c(Cl)c3)c12 [Example 47, methyl (2E)-3-[4-({3-chloro-4-[(3-fluorobenzyl)oxy]phenyl}amino)[1]benzothieno[2,3-d]pyrimidin-7-yl]acrylate] | ≤ 5 | ≤ 5 |

Now from value to compound:

| IC50 [1] [µM] | IC50 [2] [µM] | SMILES |
| --- | --- | --- |
| ≤ 5 | ≤ 0.5 | OC[C@@H](O)c1ccc2c(c1)sc1ncnc(Nc3ccc(OCc4cccc(F)c4)c(Cl)c3)c12 [Example 26, (1S)-1-[4-({3-chloro-4-[(3-fluorobenzyl)oxy]phenyl}amino)[1]benzothieno[2,3-d]pyrimidin-7-yl]ethane-1,2-diol] |
| ≤ 5 | ≤ 0.5 | OC[C@H](O)c1ccc2c(c1)sc1ncnc(Nc3ccc(OCc4cccc(F)c4)c(Cl)c3)c12 [Example 27, (1R)-1-[4-({3-chloro-4-[(3-fluorobenzyl)oxy]phenyl}amino) [1]benzothieno[2,3-d]pyrimidin-7-yl]ethane-1,2-diol] |
| ≤ 50 | ≤ 0.5 | Oc1ccc2c(c1)sc1ncnc(Nc3ccc(OCc4cccc(F)c4)c(Cl)c3)c12 [Example 34, 4-({3-chloro-4-[(3-fluorobenzyl)oxy]phenyl}amino)[1]benzothieno[2,3-d]pyrimidin-7-ol] |
| ≤ 5 | ≤ 0.5 | OC[C@H](O)COc1ccc2c(c1)sc1ncnc(Nc3ccc(OCc4cccc(F)c4)c(Cl)c3)c12 [Example 36, (2S)-3-{[4-({3-chloro-4-[(3-fluorobenzyl)oxy]phenyl}amino)[1]benzothieno[2,3-d]pyrimidin-7-yl]oxy}propane-1,2-diol] |
| ≤ 50 | ≤ 5 | CCOC(=O)C(Oc1ccc2c(c1)sc1ncnc(Nc3ccc(OCc4cccc(F)c4)c(Cl)c3)c12)C(=O)OCC [Example 42, diethyl {[4-({3-chloro-4-[(3-fluorobenzyl)oxy]phenyl}amino)[1]benzothieno[2,3-d]pyrimidin-7-yl]oxy}malonate trifluoroacetate] |
| ≤ 50 | ≤ 0.5 | OCC(CO)Oc1ccc2c(c1)sc1ncnc(Nc3ccc(OCc4cccc(F)c4)c(Cl)c3)c12 [Example 43, 2-{[4-({3-chloro-4-[(3-fluorobenzyl)oxy]phenyl}amino) [1]benzothieno[2,3-d]pyrimidin-7-yl]oxy}propane-1,3-diol trifluoroacetate (salt)] |
| ≤ 50 | ≤ 5 | CCOC(=O)C(C(=O)OCC)c1ccc2c(c1)sc1ncnc(Nc3ccc(OCc4cccc(F)c4)c(Cl)c3)c12 [Example 45, 2-{4-[3-Chloro-4-(3-fluoro-benzyloxy)-phenylamino]-benzo[4,5]thieno[2,3-d]pyrimidin-7-yl}-malonic acid diethyl ester] |
| ≤ 5 | ≤ 0.5 | OCC(CO)c1ccc2c(c1)sc1ncnc(Nc3ccc(OCc4cccc(F)c4)c(Cl)c3)c12 [Example 46, 2-{4-[3-Chloro-4-(3-fluoro-benzyloxy)-phenylamino]-benzo[4,5]thieno[2,3-]pyrimidin-7-yl}-propane-1,3-diol] |
